Reference: ChEMBL document CHEMBL1201862, “PubChem BioAssay data set” (2004)
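Briefly, cells in 96-well plates were exposed to five compound concentrations for 48 h, and endpoints were estimated by linear interpolation. GI50: concentration for 50% inhibition of growth.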 The source made the active and inactive calls. Cut-off read from the data, not from the text of the source: active = GI50 up to about 1.1 µM and inactive = higher.

Assays:
Test in all cases: NCI-60 cell line screen, 48 h
[1] = tested on: RXF 631
[2] = tested on: XF498
[3] = tested on: M19-MEL
[4] = tested on: HOP-18
[5] = tested on: LXFL 529
[6] = tested on: DLD-1
[7] = tested on: DMS-114
[8] = tested on: SNB-78
[9] = tested on: DMS-273

Row | Compound | GI50 [1] | GI50 [2] | GI50 [3] | GI50 [4] | GI50 [5] | GI50 [6] | GI50 [7] | GI50 [8] | GI50 [9]
1 | Cc1ncc(CCl)c2c1OC(C)(C)OC2 | 30 µM (inactive) | 78.2 µM (inactive) | 74 µM (inactive) | 21.1 µM (inactive) | > 100 µM (inactive) | 50.9 µM (inactive) | > 100 µM (inactive) | 39.7 µM (inactive) | 
2 | Cn1sc2ccccc2c1=S |  | 11.9 µM (inactive) | 4.59 µM (inactive) | 11.2 µM (inactive) | 14 µM (inactive) | 3.07 µM (inactive) | 2.58 µM (inactive) | 15 µM (inactive) | 5.64 µM (inactive)
3 | COc1ccc(C(=O)c2c(C(C(=O)c3ccc(OC)cc3)C(=O)c3ccc(OC)cc3)n(C(=O)c3ccc(OC)cc3)c3ccccc23)cc1 |  | > 100 µM (inactive) | > 100 µM (inactive) |  | > 100 µM (inactive) | > 100 µM (inactive) | > 100 µM (inactive) | > 100 µM (inactive) | > 100 µM (inactive)
4 | CCCCOC(=O)NC(=O)c1cn(CCCOC(=O)CCCCCCCCC(=O)OCCCn2cc(C(=O)NC(=O)OCCCC)c(=O)n(C)c2=O)c(=O)n(C)c1=O | > 100 µM (inactive) | > 100 µM (inactive) | > 100 µM (inactive) |  | > 100 µM (inactive) | > 100 µM (inactive) | > 100 µM (inactive) | > 100 µM (inactive) | > 100 µM (inactive)
5 | N=C(N)NCCCC(NCc1c2ccccc2[n+]([O-])c2ccccc12)C(=O)O (configuration not stated) | 59.8 µM (inactive) |  |  | > 100 µM (inactive) | 32.7 µM (inactive) | 38.8 µM (inactive) | 26.4 µM (inactive) | 66.7 µM (inactive) | 40.4 µM (inactive)
6 | CC(C)=CCC/C(C)=C/Cc1c(O)ccc2c1[nH]c1cc(O)c(C)cc12 |  | 24.7 µM (inactive) | 15.5 µM (inactive) |  | 10.1 µM (inactive) | 14.1 µM (inactive) | 13.8 µM (inactive) | > 25 µM (inactive) | 11 µM (inactive)
7 | Cc1nc(Nc2ccc(Cl)cc2)sc1C(=O)NNc1ccc([N+](=O)[O-])cc1[N+](=O)[O-] |  | 16.9 µM (inactive) | 22 µM (inactive) | 14 µM (inactive) | 17.1 µM (inactive) | 14.2 µM (inactive) | 14.6 µM (inactive) | 39.1 µM (inactive) | 19.5 µM (inactive)
8 | Cc1cc(=O)oc2c(C3=NN(C=O)C(c4ccccc4)C3)c(O)ccc12 (configuration not stated) | 25.2 µM (inactive) | 18.7 µM (inactive) | > 100 µM (inactive) | > 100 µM (inactive) | > 100 µM (inactive) | > 100 µM (inactive) | > 100 µM (inactive) | 24.3 µM (inactive) | > 100 µM (inactive)
9 | CC/C=C/c1cc2c(c3[nH]ccc13)[C@@H](C)CC2C.CC/C=C/c1cc2cc[nH]c2c2c1C(C)C[C@@H]2C.CCc1cc2c(c3[nH]ccc13)[C@@H](C)CC2C (some centres not stated) |  |  | 18.3 µM (inactive) | 13.5 µM (inactive) | 16.4 µM (inactive) | 13.5 µM (inactive) | 16.8 µM (inactive) | 17.2 µM (inactive) | 15.4 µM (inactive)
10 | CCOC(=O)C(C)Sc1nnc(COc2ccccc2OC)n1-c1ccccc1 (configuration not stated) |  |  | > 100 µM (inactive) | 77.4 µM (inactive) | 28.8 µM (inactive) | 37.2 µM (inactive) | 14.1 µM (inactive) | > 100 µM (inactive) | > 100 µM (inactive)
11 | Cc1nc(C(=O)O)c2ccccc2n1 |  |  |  |  | > 100 µM (inactive) | > 100 µM (inactive) | > 100 µM (inactive) | > 100 µM (inactive) | > 100 µM (inactive)
12 | O=C1OC(CC(=O)c2ccc(Cl)c(Cl)c2)C(Cl)=C1Cl (configuration not stated) | > 100 µM (inactive) | 64 µM (inactive) | > 100 µM (inactive) | > 100 µM (inactive) | 58.6 µM (inactive) | > 100 µM (inactive) | 52.6 µM (inactive) |  | > 100 µM (inactive)
13 | Nn1c(-c2ccccc2Cl)nc2ccccc2c1=O | > 100 µM (inactive) | > 100 µM (inactive) | > 100 µM (inactive) | 44.8 µM (inactive) | > 100 µM (inactive) | > 100 µM (inactive) | > 100 µM (inactive) | > 100 µM (inactive) | > 100 µM (inactive)
14 | O=c1[nH]c(=O)n(C2OC(CO)C(O)C2O)cc1/N=N/NCc1ccccc1 (configuration not stated) | > 100 µM (inactive) | > 100 µM (inactive) | > 100 µM (inactive) | > 100 µM (inactive) | 98.2 µM (inactive) | > 60.1 µM (inactive) | > 66.5 µM (inactive) | > 100 µM (inactive) | > 71.6 µM (inactive)
15 | CCCCCCCC(=O)OCC1OC(n2cc(F)c(=O)[nH]c2=O)C(N)C(OC(=O)CCCCCCC)C1O (configuration not stated) |  |  | 20.2 µM (inactive) |  | 17.1 µM (inactive) |  |  | 20 µM (inactive) | 16.6 µM (inactive)
16 | CC(=O)OCc1ncccc1C(OC(C)=O)OC(C)=O |  | > 100 µM (inactive) | > 100 µM (inactive) | > 100 µM (inactive) | > 100 µM (inactive) | > 100 µM (inactive) | > 100 µM (inactive) | > 100 µM (inactive) | > 100 µM (inactive)
17 | CCOc1ccc(OCC(=O)O)c2c1CCCC2=O | > 100 µM (inactive) | > 100 µM (inactive) | > 100 µM (inactive) |  | > 100 µM (inactive) | > 100 µM (inactive) | > 100 µM (inactive) | > 100 µM (inactive) | > 100 µM (inactive)
18 | [O-][S+](Cc1cc2c(cc1Br)OCO2)c1ccccc1 (configuration not stated) |  |  | 44.5 µM (inactive) | 41.3 µM (inactive) | 44 µM (inactive) | 24.2 µM (inactive) | 23.2 µM (inactive) | > 100 µM (inactive) | 58.9 µM (inactive)
19 | CCN(CC)C1CC(O[C@H]2C[C@](O)(C(=O)CO)Cc3c(O)c4c(c(O)c32)C(=O)c2c(OC)cccc2C4=O)OC(C)C1O (some centres not stated) | 0.0655 µM (active) | 0.0752 µM (active) | 0.0484 µM (active) |  | 0.0458 µM (active) | 0.0395 µM (active) | 0.0647 µM (active) | 0.08 µM (active) | < 0.0215 µM (active)
20 | Cc1nc(-c2ccccc2)cc2c1c(=O)oc1ccccc12 | > 100 µM (inactive) |  |  | > 100 µM (inactive) | > 100 µM (inactive) | > 100 µM (inactive) | > 100 µM (inactive) | > 100 µM (inactive) | > 100 µM (inactive)
21 | CCN(CC)CCCC(C)Nc1c2cc(OC)cc(C)c2nc2c(C)c(Cl)ccc12 (configuration not stated) | 1.79 µM (inactive) |  | 1.75 µM (inactive) | 1.56 µM (inactive) | 1.58 µM (inactive) | 1.53 µM (inactive) | 1.93 µM (inactive) | 2.14 µM (inactive) | 1.71 µM (inactive)
22 | CN(C)CCN1CCc2c([nH]c3ccccc23)C1c1cccnc1 (configuration not stated) |  |  | > 100 µM (inactive) | > 100 µM (inactive) |  | > 100 µM (inactive) | > 100 µM (inactive) | > 100 µM (inactive) | > 100 µM (inactive)
23 | CC1CCC2[C@@H](C)COC3O[C@]4(C)CCC1C32OO4 (some centres not stated) |  |  |  | > 100 µM (inactive) | 77.1 µM (inactive) | > 100 µM (inactive) | > 100 µM (inactive) | > 100 µM (inactive) | > 100 µM (inactive)
24 | COc1ccc2cc3n(c(=O)c2c1)CCc1c-3cc(OC)c(OC)c1OC |  | 50.7 µM (inactive) | > 100 µM (inactive) | > 100 µM (inactive) | > 100 µM (inactive) | > 100 µM (inactive) | > 100 µM (inactive) | > 100 µM (inactive) | > 100 µM (inactive)
